Experimental data reported in patent publication US9725414B2, “Fungicidal N-bicycloalkyl and N-tricycloalkyl pyrazole-4-(thio)carboxamide derivatives” (priority 2011, dated 2017).
Read-outs that look alike come from different tables or passages of the source.

Key:
[1] = system: Puccinia recondita; test: Example M: in vivo preventive test on Puccinia recondita (brown rust on wheat); conditions: 500 ppm of active ingredient, grading 12 days after contamination
Procedure: In Vivo Preventive Test on Puccinia recondita (Brown Rust on Wheat) […] Wheat plants (“Scipion” variety), sown in starter cups on a 50/50 peat soil pozzolana substrate and grown at 22° C., are treated at the 1 leaf stage (10 cm height) by spraying with the active ingredient prepared as described above. Plants, used as controls, are treated with the mixture of acetone/tween/DMSO/water not containing the active material. After 24 hours, the plants are contaminated by spraying the leaves with an aqueous suspension of Puccinia recondite spores (100 000 spores per mL). The spores are collected from an infected plant and are suspended in water containing 2.5 mL/L of Tween 80 at 10%. […] Grading (% of efficacy) is carried out 12 days after the contamination, in comparison with the control plants.

[2] = system: Pyrenophora teres; test: Example E: in vivo preventive test on Pyrenophora teres (barley), DMF/emulsifier preparation; conditions: 500 ppm of active ingredient, evaluated 7-9 days after inoculation
Procedure: In Vivo Preventive Test on Pyrenophora teres (Barley) Solvent: 49 parts by weight of N,N-dimethylformamide Emulsifier: 1 part by weight of alkylaryl polyglycol ether To produce a suitable preparation of active compound, 1 part by weight of active compound is mixed with the stated amounts of solvent and emulsifier, and the concentrate is diluted with water to the desired concentration. To test for preventive activity, young plants are sprayed with the preparation of active compound at the stated rate of application. One day after this treatment, the plants are inoculated with an aqueous spore suspension of Pyrenophora teres. The plants remain for 48 hours in an incubation cabinet at 22° C. and a relative atmospheric humidity of 100%.

[3] = system: Uromyces appendiculatus; test: Example Q: in vivo preventive test on Uromyces appendiculatus (bean rust); conditions: Uromyces appendiculatus on bean plants, 500 ppm of active ingredient, grading 11 days after contamination
Procedure: In Vivo Preventive Test on Uromyces appendiculatus (Bean Rust) […] Bean plants (“Saxa” variety), sown in starter cups on a 50/50 peat soil pozzolana substrate and grown at 24° C., are treated at the 2 leaf stage (9 cm height) by spraying with the active ingredient prepared as described above. Plants, used as controls, are treated with the mixture of acetone/tween/DMSO/water not containing the active material. After 24 hours, the plants are contaminated by spraying the leaves with an aqueous suspension of Uromyces appendiculatus spores (150 000 spores per mL). The spores are collected from infected plants and are suspended in water containing 2.5 mL/L of Tween 80 at 10%. […] Grading (% of efficacy) is carried out 11 days after the contamination, in comparison with the control plants.

[4] = system: Alternaria solani; test: Example C: in vivo preventive test on Alternaria solani (tomato); conditions: 500 ppm of active ingredient, evaluated 7 days after inoculation
Procedure: In Vivo Preventive Test on Alternaria solani (Tomato) Solvent: 49 parts by weight of N,N-dimethylformamide Emulsifier: 1 part by weight of alkylarylpolyglycolether To produce a suitable preparation of active compound, 1 part by weight of active compound is mixed with the stated amounts of solvent and emulsifier, and the concentrate is diluted with water to the desired concentration. To test for preventive activity, young plants are sprayed with the preparation of active compound at the stated rate of application. One day after this treatment, the plants are inoculated with an aqueous spore suspension of Alternaria solani. The plants remain for one day in an incubation cabinet at approximately 22° C. and a relative atmospheric humidity of 100%. Then the plants are placed in an incubation cabinet at approximately 20° C. and a relative atmospheric humidity of 96%.

[5] = system: Septoria tritici; test: Example I: in vivo preventive test on Septoria tritici (wheat), acetone/tween/DMSO preparation; conditions: 500 ppm of active ingredient, grading 24 days after contamination
Procedure: In Vivo Preventive Test on Septoria tritici (Wheat) […] Wheat plants (“Scipion” variety), sown in starter cups on a 50/50 peat soil pozzolana substrate and grown at 22° C., are treated at the 1 leaf stage (10 cm height) by spraying with the active ingredient prepared as described above. Plants, used as controls, are treated with the mixture of acetone/tween/DMSO/water not containing the active material. After 24 hours, the plants are contaminated by spraying the leaves with an aqueous suspension of cryopreserved Septoria tritici spores (500 000 spores per mL). The contaminated wheat plants are incubated for 72 hours at 18° C. and at 100% relative humidity, and then for 21 days at 90% relative humidity. Grading (% of efficacy) is carried out 24 days after the contamination, in comparison with the control plants.

[6] = system: Sphaerotheca fuliginea; test: Example B: in vivo preventive test on Sphaerotheca fuliginea (powdery mildew on cucurbits), gherkin plants; conditions: 500 ppm of active ingredient, grading 12 days after contamination
Procedure: In Vivo Preventive Test on Sphaerotheca fuliginea (Powdery Mildew on Cucurbits) […] Gherkin plants (“Vert petit de Paris” variety), sown in starter cups on a 50/50 peat soil-pozzolana substrate and grown at 24° C. are treated at the Z11 cotyledon stage by spraying with the active ingredient prepared as described above. Plants, used as controls, are treated with the mixture of acetone/tween/DMSO/water not containing the active material. After 24 hours, the plants are contaminated by spraying the cotyledons with an aqueous suspension of Sphaerotheca fuliginea spores (100 000 spores per mL). The spores are collected from infected plants.

[7] = system: Pyrenophora teres; test: Example F: in vivo preventive test on Pyrenophora teres (barley), acetone/tween/DMSO preparation; conditions: grading 14 days after contamination
Procedure: In Vivo Preventive Test on Pyrenophora teres (Barley) […] Barley plants (“Plaisant” variety), sown in starter cups on a 50/50 peat soil pozzolana substrate and grown at 22° C., are treated at the 1 leaf stage (10 cm height) by spraying with the active ingredient prepared as described above. Plants, used as controls, are treated with the mixture of acetone/tween/DMSO/water not containing the active material. After 24 hours, the plants are contaminated by spraying the leaves with an aqueous suspension of Pyrenophora teres spores (12 000 spores per mL). The spores are collected from a 12-day-old culture. […] Grading (% of efficacy) is carried out 14 days after the contamination, in comparison with the control plants.

[8] = system: Alternaria brassicae; test: Example D: in vivo preventive test on Alternaria brassicae (leaf spot on radish); conditions: 100 ppm of active ingredient, grading 6 days after contamination
Procedure: In Vivo Preventive Test on Alternaria brassicae (Leaf Spot on Radish) […] Radish plants (“Pernod Clair” variety), sown in starter cups on a 50/50 peat soil pozzolana substrate and grown at 17° C., are treated at the cotyledon stage by spraying with the active ingredient prepared as described above. Plants, used as controls, are treated with the mixture of acetone/tween/DMSO/water not containing the active material. After 24 hours, the plants are contaminated by spraying the cotyledons with an aqueous suspension of Alternaria brassicae spores (50 000 spores per mL). The spores are collected from a 15-day-old culture. The contaminated radish plants are incubated at 20° C. and at 100% relative humidity. Grading (% of efficacy) is carried out 6 days after the contamination, in comparison with the control plants.

[9] = log P by HPLC on reversed-phase column (C 18), EEC Directive 79831 Annex V.A8; type: physicochemical
Procedure: In table 1, the log P values were determined in accordance with EEC Directive 79831 Annex V.A8 by HPLC (High Performance Liquid Chromatography) on a reversed-phase column (C 18), using the method described below: Temperature: 40° C.; Mobile phases: 0.1% aqueous formic acid and acetonitrile; linear gradient from 10% acetonitrile to 90% acetonitrile. Calibration was carried out using unbranched alkan-2-ones (comprising 3 to 16 carbon atoms) with known log P values (determination of the log P values by the retention times using linear interpolation between two successive alkanones). lambda-max-values were determined using UV-spectra from 200 nm to 400 nm and the peak values of the chromatographic signals.

[10] = system: Botrytis cinerea; test: Example P: in vivo preventive test on Botrytis cinerea (grey mould), gherkin plants; conditions: 500 ppm of active ingredient, grading 4 to 5 days after contamination
Procedure: In Vivo Preventive Test on Botrytis cinerea (Grey Mould) […] Gherkin plants (“Vert petit de Paris” variety), sown in starter cups on a 50/50 peat soil pozzolana substrate and grown at 24° C. are treated at the Z11 cotyledon stage by spraying with the active ingredient prepared as described above. Plants, used as controls, are treated with the mixture of acetone/tween/DMSO/water not containing the active material. After 24 hours, the plants are contaminated by spraying the cotyledons with an aqueous suspension of cryopreserved Botrytis cinerea spores (50 000 spores per mL). The spores are suspended in a nutrient solution composed of 10 g/L of PDB, 50 g/L of D-Fructose, 2 g/L of NH4NO3 and 1 g/L of KH2PO4. The contaminated gherkin plants are incubated at 17° C. and at 90% relative humidity. Grading (% of efficacy) is carried out 4 to 5 days after the contamination, in comparison with the control plants.

[11] = 500 ppm of active ingredient, barley
[12] = Pyrenophora teres on barley, 100 ppm of active ingredient
[13] = HPLC reversed-phase C 18, 40° C., 0.1% aqueous formic acid and acetonitrile gradient, several values = mixture of two or more isomers

Row | logP [9, 13] | logP [9] | SMILES | Efficacy [1] [%] | Efficacy [3] [%] | Efficacy [5] [%] | Efficacy [7, 11] [%] | Efficacy [10] [%] | also measured
1 | 2.64 |  | Cn1nc(C(F)F)c(C(=O)NC2CC3CCC2C3)c1Cl (stereo not shown) [Example 47] |  | 83 | 83 | 88 | 97 | 
2 | 2.46 |  | Cn1nc(C(F)F)c(C(=O)NC2CC3CCC2C3)c1F (stereo not shown) [Example 48] | 75 | 87 | 83 | 88 | 83 | 
3 |  | 3.79 | CC1C(NC(=O)c2c(C(F)F)nn(C)c2Cl)CC2CC1C2(C)C (stereo not shown) [Example 51] |  |  |  |  | 95 | 
4 |  | 3.19 | CC1C(NC(=O)c2cn(C)nc2C(F)F)CC2CC1C2(C)C (stereo not shown) [Example 52] |  |  |  |  | 80 | 
5 | 3.79 |  | CC1C(NC(=O)c2c(C(F)F)nn(C)c2Cl)CC2CC1C2(C)C (stereo not shown) [Example 53] |  |  | 83 | 75 | 99 | 
6 |  | 3.19 | CC1C(NC(=O)c2cn(C)nc2C(F)F)CC2CC1C2(C)C (stereo not shown) [Example 54] |  |  |  |  | 85 | 
7 |  | 3.57 | Cn1nc(C(F)F)c(C(=O)NC23CC4CC(CC(C4)C2)C3)c1F [Example 56] |  |  | 83 |  | 100 | 
8 |  | 3.81 | Cn1nc(C(F)F)c(C(=O)NC23CC4CC(CC(C4)C2)C3)c1Cl [Example 57] |  |  | 75 |  | 75 | 
9 | 3.50 |  | Cn1cc(C(=O)N(CC2CCC3CCCC32)C2CC2)c(C(F)F)n1 (stereo not shown) [Example 59] | 89 | 75 |  | 100 | 100 | Efficacy [6]: 100%
10 | 3.92 |  | Cn1cc(C(=O)N(CC2CCC3CCCC3C2)C2CC2)c(C(F)F)n1 (stereo not shown) [Example 63] | 81 |  | 97 | 79 | 85 | Efficacy [6]: 100%
11 |  | 3.23 | Cn1nc(C(F)F)c(C(=O)N(CC2CC3C=CC2C3)C2CC2)c1F (stereo not shown) [Example 73] |  |  |  | 100 | 93 | 
12 | 3.67 |  | CON(C(=O)c1c(C(F)F)nn(C)c1F)C(C)C1CC2CCC1C2 (stereo not shown) [Example 99] | 95 |  |  | 100 | 100 | Efficacy [6]: 100%
13 | 3.42 |  | CON(C(=O)c1cn(C)nc1C(F)F)C(C)C1CC2CCC1C2 (stereo not shown) [Example 100] | 90 | 100 |  | 100 | 100 | Efficacy [6]: 100%

More lines, now with the values behind:

Row | SMILES | logP [9, 13] | logP [9] | Efficacy [1] [%] | Efficacy [3] [%] | Efficacy [5] [%] | Efficacy [7, 11] [%] | Efficacy [10] [%] | also measured
14 | Cn1nc(C(F)F)c(C(=O)N(C2CC2)C2CCC3CCCC3C2)c1Cl (mixture of isomers) [Example 21] |  |  | 94 | 98 |  |  |  | Efficacy [2]: 100%; Efficacy [4]: 90%
15 | Cn1nc(C(F)F)c(C(=O)N(C2CC2)C2CCC3CCCCC3C2)c1F (mixture of isomers) [Example 38] |  |  | 100 | 100 | 96 | 100 |  | Efficacy [2]: 100%; Efficacy [6]: 93%; Efficacy [4]: 95%
16 | Cn1nc(C(F)F)c(C(=O)N(CC2CCCC3CCCC32)C2CC2)c1F (mixture of isomers) [Example 60] |  |  |  |  |  |  |  | Efficacy [7, 12]: 98%; Efficacy [8]: 100%
17 | Cn1cc(C(=O)N(CC2CCCC3CCCC32)C2CC2)c(C(F)F)n1 (mixture of isomers) [Example 61] |  |  |  |  |  |  |  | Efficacy [7, 12]: 100%; Efficacy [8]: 92%
18 | Cn1cc(C(=O)NC2CCC3CCCC32)c(C(F)F)n1 (stereo not shown) [Example 1] | 2.51 |  | 94 | 95 | 80 |  |  | 
19 | CN(C(=O)c1c(C(F)F)nn(C)c1F)C1CCC2CCCCC21 (stereo not shown) [Example 8] |  | 3.35 |  |  |  |  |  | Efficacy [7, 12]: 98%; Efficacy [8]: 100%
20 | CN(C(=O)c1cn(C)nc1C(F)F)C1CCC2CCCCC21 (stereo not shown) [Example 9] |  | 2.88 |  |  |  |  |  | Efficacy [7, 12]: 75%; Efficacy [8]: 100%
21 | Cn1cc(C(=O)N(C2CC2)C2CC3CCCCC3C2)c(C(F)F)n1 (stereo not shown) [Example 13] | 3.61 |  |  | 91 | 90 | 97 | 100 | Efficacy [6]: 80%
22 | Cn1cc(C(=O)NC2CC3CCC2C3)c(C(F)F)n1 (stereo not shown) [Example 46] | 2.14 |  |  | 85 | 75 |  | 88 | 
